Test [1] has as its system 797 cell line. As to the kind of experiment: Cell viability assay. In kind it is cell-based. The settings on record: read-out: 797 cellular EC50 (cellular potency).
The target in test [2] is BRD4 (Homo sapiens, UniProt O60885). Description: AlphaScreen BRD binding assay. The settings on record: calculated from BRD4 potency.

The text below walks through data of publication PMC4234447 (Journal of Medicinal Chemistry, 2014).

The structures appear in SMILES notation.

In general, EC50 refers to the concentration that produces a half-maximal response.

Regarding `Cc1sc2c(c1C)C(c1ccc(Cl)cc1)=N[C@@H](CC(=O)OC(C)(C)C)c1nnc(C)n1-2` [Compound 1], the EC50 in test [1] was determined as 71.7 nM.
With `Cc1noc(C)c1-c1ccc(C=O)cc1` [Compound 8], the “ligand efficiency (as defined by Hopkins et al.)” value in test [2] was 0.54.
